{"source": "patent US20210361618A1", "about": "“TRIPLET COMBINATION FORMULATIONS AND METHODS FOR TREATING OR REDUCING THE RISK OF CARDIOVASCULAR DISEASE” (priority 2017, published 2021)", "key": {"LDL-C": {"tested_on": "LDL-C", "assay": "Integrated analysis of six Phase 2 studies of Bempedoic acid", "type": "in vivo, human", "conditions": "for LDL-C placebo-adjusted LS means for percent change from baseline: integrated analysis of six Phase 2 studies", "description": "Doses of Bempedoic acid ranging from 40 to 240 mg/day have been evaluated in the Phase 2 program. Based on data from the integrated analysis of safety and efficacy, observed values and percent change from baseline in the primary efficacy endpoint, LDL-C, together with a positive safety profile, support the choice of the 180-mg dose for the Phase 3 studies. […] Overall, balancing efficacy and safety, the 180-mg dose was chosen for the Phase 3 program."}, "patients": {"tested_on": "patients", "assay": "Phase 1 and 2 clinical trials of bempedoic acid: adverse events of special interest", "type": "in vivo, human", "conditions": "Phase 1 or 2 clinical trials to date"}, "monkey": {"tested_on": "monkey", "assay": "Preclinical monkey studies (hypoglycemia and metabolic acidosis)"}}, "data": [{"smiles": "CC(C)(CCCCCC(O)CCCCCC(C)(C)C(=O)O)C(=O)O", "note": "[Bempedoic acid, 8-hydroxy-2,2,14,14 tetramethylpentadecanedioic acid]", "values": [{"measurement": "safety profile of the 180-mg dose", "setting": "LDL-C; Phase 2 program, 180 mg", "result": "excellent safety profile"}, {"measurement": "LDL-C placebo-adjusted LS means for percent change from baseline", "setting": "LDL-C; 180 mg on top of stable statin therapy", "result": "~22", "unit": "%"}, {"measurement": "LDL-C placebo-adjusted LS means for percent change from baseline", "setting": "LDL-C; Bempedoic acid 180 mg, monotherapy or with Ezetimibe 10 mg", "result": "approximately 32%"}, {"measurement": "cases of hypoglycemia or metabolic acidosis", "setting": "patients", "result": "No cases"}, {"measurement": "outcome of hypoglycemia and metabolic acidosis", "setting": "monkey", "result": "monkey deaths"}]}]}
